The test system of assay [1] is LC3-II. As to the kind of experiment: Autophagy inhibition by LC3-II western blot in HEK293T cells. The format is cell-based, Homo sapiens. The note with it: 12 hr. An excerpt:
(§1) Cells transfected and/or treated with different compounds were harvested at the end of treatment.
(In general: A western blot detects proteins with antibodies after separation by electrophoresis.)

The subject of assay [2] is HEK293T cells. As to the kind of experiment: POST-IT^DC661-H1 target-ID by SILAC (LC-MS/MS, DC660 competition). The format is cell-based, Homo sapiens. To be noted: heavy: 200 nM DC661-H1, light: DC661-H1 (200 nM) and DC660 (2 µM). As for the experimental part:
A stable HEK293T cells expressing the POST-IT system was generated using the PiggyBac transposon system. Briefly, HEK293T cells on a 60 mm dish were co-transfected with 8 µg of PB-puro-CMV-POST-IT-Tet-SBP^K4R-sPup^K61R-iresGFP and 2 µg of the Super PiggyBac Transposase expression vector (PB200PA-1, System Biosciences, USA). Four days later, cells were treated with 5 µg/ml puromycin for about 2 weeks. Media containing puromycin were changed every 3–4 days.
The stable cell line was cultured in SILAC DMEM (280001200, Silantes, Germany) without arginine, lysine, and glutamine, supplemented with 10% dialyzed FBS (C3820-0100, VivaCell Biosciences, China) and 2 mM glutamine. The SILAC medium included 600 mg/l proline (P120032, aladdin, China) to prevent the conversion of arginine to proline ([Bendall et al., 2008]). […]
The expression of POST-IT was induced by the addition of 100 ng/ml doxycycline. […] Cell debris was removed by centrifugation, and protein concentration was determined by the BCA assay. […]
Excised gels were sliced into small pieces of ~1 mm^3, rinsed three times with Milli-Q water, decolorized with 50% acetonitrile and 100 mM NH4HCO3, and dehydrated with 100% acetonitrile. […] The resulting tryptic peptides were analyzed by LC-MS/MS at the Institute of Hydrobiology (Chinese Academy of Sciences, Wuhan, China). […]

Assay [3] deals with LC3-II. As to the kind of experiment: Autophagy inhibition by LC3-II western blot in A375 cells. To be noted: 12 hr. The format is cell-based, Homo sapiens.
Source text: as §1

For the next assay, the target named is T1, VPS37C-V5 (Homo sapiens, UniProt A5D8V6).
T1 construct: expressed in transfected cells; host or cells: HEK293T
The assay is described as follows: POST-IT labeling and streptavidin pulldown of VPS37C-V5 in HEK293T cells. The note with it: 200 nM DC661-H1, 24 hr. The format is cell-based.

The target of assay [4] is T2, SRC (Danio rerio, UniProt Q1JPZ3).
T2 construct: from tissue; host or cells: whole zebrafish embryos (AB strain) injected with the POST-IT plasmid
As to the kind of experiment: In vivo pupylation assay using zebrafish embryos. To be noted: 10 µM DH5, 24 hr, versus DMSO. As for the experimental part: To express POST-IT in early zebrafish embryos, 20 pg of pUbi-QFGal4-2A-3×Flag-POST-IT plasmid and 25 pg of transposase mRNA were injected into an embryo at the one-cell stage. The next day, GFP-positive and live embryos were selected, dechorionated with Pronase E (HY-114158, MedChemExpress, USA), and divided into two groups of approximately 1000 embryos each. One group was treated with DMSO and the other with 10 µM DH5 for 24 hr. The embryos were then collected, rinsed with PBS, and lysed in cell lysis buffer using a motorized plastic pestle. The resulting lysates were cleared by centrifugation, and protein concentrations were measured using the BCA assay. Samples were diluted to 2 mg/ml in 1 ml, mixed with 200 µl of prewashed streptavidin magnetic beads, and incubated at 4°C for 3 hr. The beads were washed five times with wash buffer A. Proteins were eluted with 2×SDS sample buffer and subsequently processed for western blot analysis.

Another assay addresses SRC(251-536) (Homo sapiens, UniProt P12931). The assay is described as follows: SRC kinase activity assay (Kinase-Lumi luminescent).
The test system of assay [5] is HEK293T cells. As to the kind of experiment: POST-IT^DH5 target-ID proteomics (LC-MS/MS, dasatinib competition). The format is cell-based, Homo sapiens. To be noted: for FC(DH5/DASA) / log2(FC(DH5/DASA)): DH5 vs DH5 + dasatinib competition, imputed data. As for the experimental part: HEK293T cells were plated on two 100 mm dishes for each condition and co-transfected next day with 8 µg of pTol2-HA-Halo^8KR-PafA^S126A,K172R and 16 µg of pEF6a-SBP^K4R-sPup^K61R per dish. […] Cells were harvested in 1 ml of RIPA buffer, supplemented with a protease inhibitor cocktail for each dish. Following brief sonication, cell debris was removed by centrifugation at maximum speed for 10 min at 4°C. The supernatants were collected and mixed with 200 µl of streptavidin magnetic beads that had been prewashed with RIPA buffer. […] The eluates were combined and precipitated using trichloroacetic acid (TCA)/DOC. The resultant protein pellets were neutralized with 1 M Tris-HCl pH 8.8, and separated by Tricine-SDS-PAGE, and the CBB-stained bands were excised, with those smaller than 10 kD being removed, and processed for mass analysis.
Excised gels were sliced into small pieces of ~1 mm^3, rinsed three times with Milli-Q water, decolorized with 50% acetonitrile and 100 mM NH4HCO3, and dehydrated with 100% acetonitrile. The dehydrated gel pieces were then reduced with 10 mM DTT in 50 mM NH4HCO3 at 56°C for 1 hr, carboxymethylated with 55 mM iodoacetamide in the dark at room temperature for 30 min, and digested with trypsin at a 1:50 enzyme to protein mass ratio at 37°C overnight. The peptides were collected, desalted with ZipTipC18 (ZTC18S096, Millipore, USA), dried under vacuum, and stored at –20°C until MS analysis. The resulting tryptic peptides were analyzed by LC-MS/MS at the Institute of Hydrobiology (Chinese Academy of Sciences, Wuhan, China). LC-MS/MS data acquisition was performed using a Q Exactive HF-X mass spectrometer coupled with an Easy-nLC 1200 system (Thermo Fisher Scientific, USA). The peptide mixtures were initially loaded onto a C18 trap column and subsequently separated on a C18 reverse-phase analytical HPLC column, Acclaim PepMap C18 column (75 µm ID ×250 mm, 2 µm particle size, 100 Å pore size, Thermo Fisher Scientific), employing a 100 min gradient program with mobile phase A (0.1% formic acid) and mobile phase B (80% acetonitrile, 0.1% formic acid). The gradient program was as follows: 0–65 min, 5–23% B; 65–85 min, 23–45% B; 85–86 min, 45–90% B; 87–90 min, 90% B; 90–90.1 min, 90–5% B; 90.1–100 min, 5% B, maintained at a constant flow rate of 300 nl/min. For data-dependent acquisition mode analysis, each scan cycle consisted of one full-scan mass spectrum (R = 60 K, AGC = 3e6, max IT = 20 ms, scan range = 350–1800 m/z) followed by 20 MS/MS events (R = 15 K, AGC = 2e5, max IT = 50 ms). The higher-energy collisional dissociation collision energy was set to 28 for ion fragmentation. The isolation window for precursor selection was set to 1.6 Da. The former target ion exclusion was set for 25 s.
For the identification of DH5 targets, raw MS data were analyzed using MaxQuant (version 2.1.0.0, Max Planck Institute of Biochemistry; [Cox and Mann, 2008]) with the Andromeda search engine. The MS data were aligned to the UniProt human protein database (Proteome ID: UP000005640). […] Variable modifications included oxidation (M), acetyl (Protein N-term), deamidation (NQ), and GGE (K). The false discovery rate for both peptide and protein identification was set at 1%. The ‘Match Between run’ option were enabled, with other settings at their default values. Missing values from identified proteins were filled through random imputation and further analyzed statistically to derive p values through unpaired SAM analysis using PANDA-view ([Chang et al., 2018]). Proteins commonly present under DMSO condition were considered nonspecific background interactions and excluded from further analysis.

Another assay has as its target T3, SEPHS2 (Homo sapiens, UniProt Q99611, U60C).
T3 construct: SBPII (N); 6xHis (pET28a backbone, Ni column purification); made in house; host or cells: E. coli BL21(DE3)
The assay is described as follows: MST binding to Cy5-labeled SEPHS2. To be noted: Cy5-labeled recombinant SEPHS2; n = 2, mean ± s.d.

The target of assay [6] is T4, SRC (Homo sapiens, UniProt P12931).
T4 construct: endogenous in cells; host or cells: HEK293T
As to the kind of experiment: In cellulo pupylation and pulldown assay of SRC in HEK293T cells. To be noted: 250 nM DH5. The format is cell-based.

The structures appear in SMILES notation.

T3 sequence (Q99611 with tags, fused parts or gaps U60C): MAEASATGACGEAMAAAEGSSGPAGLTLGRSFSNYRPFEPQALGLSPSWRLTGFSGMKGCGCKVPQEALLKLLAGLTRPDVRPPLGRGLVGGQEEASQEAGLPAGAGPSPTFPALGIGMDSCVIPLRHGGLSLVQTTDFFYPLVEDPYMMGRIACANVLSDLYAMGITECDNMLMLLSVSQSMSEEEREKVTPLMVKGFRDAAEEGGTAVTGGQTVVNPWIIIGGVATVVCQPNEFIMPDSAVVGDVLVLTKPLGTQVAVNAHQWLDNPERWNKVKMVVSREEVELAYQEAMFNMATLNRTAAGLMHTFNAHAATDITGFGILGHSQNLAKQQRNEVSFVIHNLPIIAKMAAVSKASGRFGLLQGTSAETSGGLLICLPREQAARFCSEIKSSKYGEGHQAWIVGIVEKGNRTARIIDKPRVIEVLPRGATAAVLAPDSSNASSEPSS
T1 sequence (A5D8V6 whole entry): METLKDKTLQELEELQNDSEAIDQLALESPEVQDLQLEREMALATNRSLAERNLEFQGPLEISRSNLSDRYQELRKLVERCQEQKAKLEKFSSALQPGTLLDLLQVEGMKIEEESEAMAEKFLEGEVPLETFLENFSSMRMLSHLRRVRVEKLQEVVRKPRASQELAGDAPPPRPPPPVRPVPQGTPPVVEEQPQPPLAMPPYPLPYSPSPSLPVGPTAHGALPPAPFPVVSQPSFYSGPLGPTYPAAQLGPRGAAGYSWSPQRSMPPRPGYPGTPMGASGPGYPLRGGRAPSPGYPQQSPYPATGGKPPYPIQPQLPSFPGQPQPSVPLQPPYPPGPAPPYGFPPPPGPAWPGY
Chain of SRC(251-536) (P12931 251-536): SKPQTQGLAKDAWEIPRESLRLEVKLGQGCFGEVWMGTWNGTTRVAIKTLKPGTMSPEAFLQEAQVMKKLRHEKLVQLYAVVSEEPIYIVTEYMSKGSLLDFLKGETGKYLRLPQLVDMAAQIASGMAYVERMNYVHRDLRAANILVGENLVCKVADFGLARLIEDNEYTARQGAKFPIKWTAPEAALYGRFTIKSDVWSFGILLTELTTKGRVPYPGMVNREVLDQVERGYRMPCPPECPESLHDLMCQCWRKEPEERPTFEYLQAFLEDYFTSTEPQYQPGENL
T2 sequence (Q1JPZ3 whole entry): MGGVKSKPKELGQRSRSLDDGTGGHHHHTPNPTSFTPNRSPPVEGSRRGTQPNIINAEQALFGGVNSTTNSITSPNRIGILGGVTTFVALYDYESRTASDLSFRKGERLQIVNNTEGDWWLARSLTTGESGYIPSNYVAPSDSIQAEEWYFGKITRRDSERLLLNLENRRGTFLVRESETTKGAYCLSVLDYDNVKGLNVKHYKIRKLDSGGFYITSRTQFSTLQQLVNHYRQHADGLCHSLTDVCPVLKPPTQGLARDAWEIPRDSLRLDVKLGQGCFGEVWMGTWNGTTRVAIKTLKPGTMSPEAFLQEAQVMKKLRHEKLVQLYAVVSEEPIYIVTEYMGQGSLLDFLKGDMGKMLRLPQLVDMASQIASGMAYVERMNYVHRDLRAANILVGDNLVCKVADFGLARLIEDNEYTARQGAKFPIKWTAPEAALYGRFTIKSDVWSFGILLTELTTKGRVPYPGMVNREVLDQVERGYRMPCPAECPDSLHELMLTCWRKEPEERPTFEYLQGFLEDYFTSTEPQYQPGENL
T4 sequence (P12931 2-536): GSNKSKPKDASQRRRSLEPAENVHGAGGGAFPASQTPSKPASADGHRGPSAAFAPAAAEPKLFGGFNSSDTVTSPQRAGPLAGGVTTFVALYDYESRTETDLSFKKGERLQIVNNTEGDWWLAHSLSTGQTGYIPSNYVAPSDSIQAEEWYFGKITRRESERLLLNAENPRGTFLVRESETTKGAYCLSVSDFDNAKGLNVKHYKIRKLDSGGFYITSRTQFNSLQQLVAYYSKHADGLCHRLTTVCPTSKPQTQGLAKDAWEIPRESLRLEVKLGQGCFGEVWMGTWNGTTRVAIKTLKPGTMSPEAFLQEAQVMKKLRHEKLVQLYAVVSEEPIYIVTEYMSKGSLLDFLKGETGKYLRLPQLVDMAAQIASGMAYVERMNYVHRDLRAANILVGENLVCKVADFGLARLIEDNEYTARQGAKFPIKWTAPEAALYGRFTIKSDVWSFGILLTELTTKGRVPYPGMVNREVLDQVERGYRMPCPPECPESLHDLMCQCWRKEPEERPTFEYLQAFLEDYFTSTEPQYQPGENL

As for `O=C(CN(CCCCCCNc1ccnc2cc(Cl)ccc12)CCCCCCNc1ccnc2cc(Cl)ccc12)NCCCCCNC(=O)OCCOCCOCCOC(=O)NCCOCCOCCCCCCCl` [DC661-H1], the “levels of LC3-II band (autophagy inhibition)” value in the assay on LC3-II [1] and in the assay with LC3-II [3] was “significantly increased” each time. Besides, in the assay on HEK293T cells [2], the “target proteins identified by POST-IT^DC661-H1 (SILAC)” value is reported as “identified several target proteins directly linked to autophagy regulation”. In addition, on VPS37C-V5, the “enrichment of VPS37C-V5 after streptavidin pulldown” value was “substantially enriched”.

A word on the IC50: it is the midpoint of a concentration-inhibition curve. In general, Kd refers to the concentration at which binding is half-saturated. Consider `Cc1nc(Nc2ncc(C(=O)Nc3c(C)cccc3Cl)s2)cc(N2CCN(CCOC(=O)NCCCCCNC(=O)OCCOCCOCCOC(=O)NCCOCCOCCCCCCCl)CC2)n1` [DH5, 23-Chloro-10-oxo-3,6,9,14,17-pentaoxa-11-azatricosyl(2-(4-(6-((5-((2-chloro-6-methylphenyl)carbamoyl)thiazol-2-yl)amino)-2-methylpyrimidin-4-yl)piperazin-1-yl)ethyl) pentane-1,5-diyldicarbamate], for which the “enrichment of endogenous SRC by POST-IT in live embryos” value at SRC [4] was “marked enrichment”. The same compound registered an IC50 against SRC(251-536) of 0.452 µM. Besides, the “target proteins identified by POST-IT^DH5” value in the assay with HEK293T cells [5] (HEK293T, 250 nM DH5 with or without 2.5 µM dasatinib, 24 hr) is “eight known target proteins (FYN, RIPK2, MAPK14, ABL2, ABL1, CSK, LYN, and SRC) with significant enrichment”. Besides, the “FC(DH5/DASA)” value in the assay with HEK293T cells [5] (protein AAGAB) is 1.3259; with HEK293T cells [5] (protein AAK1) it was 2.0012; with HEK293T cells [5] (protein AAMDC) it was 1.9368; in the assay on HEK293T cells [5] (protein AAR2) it was 1.5565; in the assay with HEK293T cells [5] (protein AARS), 1.1988. For the same compound, the “log2(FC(DH5/DASA))” value was 0.4070 in the assay on HEK293T cells [5] (protein AAGAB); 1.0009 in the assay on HEK293T cells [5] (protein AAK1); 0.9537 in the assay on HEK293T cells [5] (protein AAMDC); 0.6383 in the assay on HEK293T cells [5] (protein AAR2); 0.2616 in the assay on HEK293T cells [5] (protein AARS). In addition, the Kd on SEPHS2 was 11.6 ± 5.7 µM. Besides, the “POST-IT pulldown of endogenous SRC” value at SRC [6] is reported as “efficiently pull down endogenous SRC”.

These data come from paper PMC11677243, “Target protein identification in live cells and organisms with a non-diffusive proximity tagging system” (eLife, 2024).
